In patent publication US20110257210A1, “BENZIMIDAZOLE DERIVATIVES AND THEIR USE FOR MODULATING THE GABAA RECEPTOR COMPLEX” (NEUROSEARCH A/S, priority 2008, published 2011):

Biological target: benzodiazepine binding site on GABAA receptors (rat cerebral cortex membranes)
Experiment: In vitro inhibition of 3H-flunitrazepam (3H-FNM) binding
Settings: inhibition of specific binding of 3H-FNM (1 nM), cerebral cortex membranes from male Wistar rats, 40 min at 2° C.
Procedure: In Vitro Inhibition of ^3H-flunitrazepam (^3H-FNM) Binding
The GABA recognition site and the benzodiazepine modulatory unit can selectively be labelled with ^3H-flunitrazepam.
Preparations are performed at 0-4° C. unless otherwise indicated. Cerebral cortex from male Wistar rats (150-200 g) is homogenised for 5-10 sec in 20 ml Tris-HCl (30 mM, pH 7.4) using an Ultra-Turrax homogeniser. The suspension is centrifuged at 27,000×g for 15 min and the pellet is washed three times with buffer (centrifuged at 27,000×g for 10 min). The washed pellet is homogenized in 20 ml of buffer and incubated on a water bath (37° C.) for 30 min to remove endogenous GABA and then centrifuged for 10 min at 27,000×g. The pellet is then homogenized in buffer and centrifuged for 10 min at 27,000×g. The final pellet is resuspended in 30 ml buffer and the preparation is frozen and stored at −20° C.
The membrane preparation is thawed and centrifuged at 2° C. for 10 min at 27,000×g. The pellet is washed twice with 20 ml 50 mM Tris-citrate, pH 7.1 using an Ultra-Turrax homogeniser and centrifuged for 10 min at 27,000×g. The final pellet is resuspended in 50 mM Tris-citrate, pH 7.1 (500 ml buffer per g of original tissue), and then used for binding assays. Aliquots of 0.5 ml tissue are added to 25 μl of test solution and 25 μl of ^3H-FNM (1 nM, final concentration), mixed and incubated for 40 min at 2° C. Non-specific binding is determined using Clonazepam (1 μM, final concentration). After incubation the samples are added 5 ml of ice-cold buffer and poured directly onto Whatman GF/C glass fibre filters under suction and immediately washed with 5 ml ice-cold buffer. The amount of radioactivity on the filters is determined by conventional liquid scintillation counting. Specific binding is total binding minus non-specific binding.
25-75% inhibition of specific binding must be obtained, before calculation of an IC50.
The test value will be given as IC50 (the concentration (μM) of the test substance which inhibits the specific binding of ^3H-FNM by 50%).
Co is specific binding in control assays, and
CX is the specific binding in the test assay.
(The calculations assume normal mass-action kinetics).

IC50	Compound
1.6 nM	CC(C)(O)c1ccc2c(c1)ncn2-c1ccc(F)c(-c2cccnc2F)c1 [Compound 7a, 2-{1-[4-Fluoro-3-(2-fluoro-pyridin-3-yl)-phenyl]-1H-benzoimidazol-5-yl}-propan-2-ol]
1.1 nM	CC(C)(O)c1ccc2c(c1)ncn2-c1ccc(F)c(-c2ccncc2F)c1 [Compound 7e, 2-{1-[4-Fluoro-3-(3-fluoro-pyridin-4-yl)-phenyl]-1H-benzoimidazol-5-yl}-propan-2-ol]
1.9 nM	CC(C)(O)c1ccc2c(c1)ncn2-c1ccc(F)c(-c2cccnc2Cl)c1 [Compound 7b, 2-{1-[3-(2-Chloro-pyridin-3-yl)-4-fluoro-phenyl]-1H-benzoimidazol-5-yl}-propan-2-ol]
0.29 nM	COc1ncccc1-c1cc(-n2cnc3cc(C(C)(C)O)ccc32)ccc1F [Compound 7d, 2-{1-[4-Fluoro-3-(2-methoxy-pyridin-3-yl)-phenyl]-1H-benzoimidazol-5-yl}-propan-2-ol]
0.77 nM	COc1ncc(-c2cc(-n3cnc4cc(C(C)(C)O)ccc43)ccc2F)c(OC)n1 [Compound 7h, 2-{1-[3-(2,4-Dimethoxy-pyrimidin-5-yl)-4-fluoro-phenyl]-1H-benzoimidazol-5-yl}-propan-2-ol]
2.5 nM	CC(C)(O)c1ccc2c(c1)ncn2-c1ccc(F)c(-c2ccnc(Cl)c2F)c1 [Compound 7f, 2-{1-[3-(2-Chloro-3-fluoro-pyridin-4-yl)-4-fluoro-phenyl]-1H-benzoimidazol-5-yl}-propan-2-ol]
99 nM	CC(C)(O)c1ccc2c(c1)ncn2-c1ccc(F)c(-c2cncc(C#N)c2)c1 [Compound 7g, 5-{2-Fluoro-5-[5-(1-hydroxy-1-methyl-ethyl)-benzoimidazol-1-yl-]-phenyl}-nicotinonitrile]
0.64 nM	CC(C)(O)c1ccc2c(c1)ncn2-c1ccc(F)c(-c2ccncc2Cl)c1 [Compound 7c, 2-{1-[3-(3-Chloro-pyridin-4-yl)-4-fluoro-phenyl]-1H-benzoimidazol-5-yl}-propan-2-ol]
1.1 nM	CC(C)(O)c1ccc2c(c1)ncn2-c1ccc(F)c(-c2ccncc2C#N)c1 [Compound 7i, 4-{2-Fluoro-5-[5-(1-hydroxy-1-methyl-ethyl)-benzoimidazol-1-yl]-phenyl}-nicotinonitrile]
